The values that follow come from PubChem BioAssay (NCI).

SMILES strings stand for the structures.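 Compound exposure: 48 hours, 5 concentrations, 96-well plates. The concentration for full growth arrest is given as TGI.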 Where a SMILES comes first, the peptide text is derived from it. [ ]: non-standard residue; d: D form. The star is where a group is joined. X28 = COC1=CC(=O)N(C(=O)[C@@H](O*)C(C)C)[C@H]1Cc1ccccc1; NMeL = CN[C@@H](CC(C)C)C(=O)O; Cbz = O=C(OCc1ccccc1)* Bounds are passed on as bounds.

Some test systems named below: BT-549 breast; T-47D breast; HCT-15 colon; SF-268 CNS; MCF7 breast; NCI-H522 lung; RPMI-8226 leukemia; RXF 393 renal; PC-3 prostate; COLO 205 colon; SK-MEL-5 melanoma.
Assay in all cases: NCI-60 cell line screen, 48 h

As for `COC1=CC(=O)N(C(=O)[C@@H](OC(=O)[C@@H]2CCCN2C(=O)[C@@H]2CCCN2C(=O)[C@H](CC(C)C)N(C)C(=O)[C@@H](NC(=O)[C@@H](NC(=O)OCc2ccccc2)C(C)C)C(C)C)C(C)C)[C@H]1Cc1ccccc1` (Cbz-VV[NMeL]PP-X28), the TGI in the experiment with BT-549 breast, in the experiment with T-47D breast, in the experiment with HCT-15 colon, with SF-268 CNS, in the experiment on MCF7 breast and with NCI-H522 lung was greater than 100 µM in each case. In addition, the TGI in the experiment with RPMI-8226 leukemia was greater than 100 µM; in the experiment with RXF 393 renal, 38.9 µM; with PC-3 prostate, 76.8 µM; with COLO 205 colon it was greater than 100 µM.

Consider `Cc1cc2nc(NS(=O)(=O)c3cc(C)c(Cl)cc3S)[nH]c2cc1C`, for which the TGI in the experiment with BT-549 breast, in the experiment on T-47D breast, with HCT-15 colon, in the experiment on SF-268 CNS, with MCF7 breast and in the experiment with NCI-H522 lung was greater than 100 µM each time. Besides, the TGI in the experiment with RPMI-8226 leukemia, in the experiment with RXF 393 renal, in the experiment on PC-3 prostate, in the experiment with COLO 205 colon and in the experiment on SK-MEL-5 melanoma was greater than 100 µM in each case.

With `CCN(CC)CCNc1ccc2nnn3c4ccc(OC(C)=O)cc4c(=O)c1c23`, the TGI in the experiment with BT-549 breast is 27.2 µM; with T-47D breast, 31.1 µM; in the experiment with HCT-15 colon, 13.6 µM; with SF-268 CNS it was 18.1 µM; in the experiment with MCF7 breast it was 16.2 µM; in the experiment with NCI-H522 lung, 5.92 µM. Further, the TGI came to 5.56 µM in the experiment on RPMI-8226 leukemia; 6.19 µM in the experiment on RXF 393 renal; 17.3 µM in the experiment with PC-3 prostate; 14.6 µM in the experiment with COLO 205 colon; 11.2 µM with SK-MEL-5 melanoma.

On to `COC(=O)C1(Cc2ccc3c(c2)CCC3)Cc2cc3c(cc2C1=O)CCC3` (stereo not drawn), for which the TGI in the experiment on BT-549 breast is 39.2 µM; in the experiment with T-47D breast, greater than 46.4 µM; with HCT-15 colon it was greater than 46.4 µM; in the experiment with SF-268 CNS it was greater than 46.4 µM; with MCF7 breast, greater than 46.4 µM; with NCI-H522 lung, greater than 31.6 µM. For the same molecule, the TGI in the experiment on RPMI-8226 leukemia was 31.3 µM; in the experiment with RXF 393 renal, greater than 46.4 µM; in the experiment on PC-3 prostate, greater than 46.4 µM; in the experiment with COLO 205 colon, 29.2 µM; in the experiment with SK-MEL-5 melanoma it was 32.3 µM.

For `C/C=C/COc1cc(NC(=S)c2ccoc2C)ccc1OC`, the TGI in the experiment with BT-549 breast, in the experiment on T-47D breast, in the experiment on HCT-15 colon, in the experiment on SF-268 CNS, in the experiment on MCF7 breast and with NCI-H522 lung was greater than 100 µM throughout. Moreover, the TGI in the experiment on RPMI-8226 leukemia is 76.7 µM; in the experiment with RXF 393 renal it was greater than 100 µM; in the experiment with PC-3 prostate it was greater than 100 µM; with COLO 205 colon, greater than 100 µM; with SK-MEL-5 melanoma it was greater than 100 µM.

For `CN1CCN(CCCCNc2cc3c4ccccc4c(NCCCCN4CCN(C)CC4)cc3c3ccccc23)CC1`, the TGI with BT-549 breast came out at 14.9 µM; with T-47D breast, 84.2 µM; in the experiment on HCT-15 colon, 2.88 µM; in the experiment on SF-268 CNS it was 8.04 µM; in the experiment with MCF7 breast it was 2.71 µM; with NCI-H522 lung, 6.51 µM. For the same molecule, the TGI worked out at 4.14 µM in the experiment with RPMI-8226 leukemia; 3.13 µM in the experiment on RXF 393 renal; 21.2 µM with PC-3 prostate; 14.3 µM in the experiment on COLO 205 colon; 2.85 µM in the experiment with SK-MEL-5 melanoma.

On to `CCOC(=O)c1ccc2c(=O)n3c(C(=O)OCC)ccc3c(=O)n12`, for which the TGI in the experiment on BT-549 breast, with T-47D breast, with HCT-15 colon, with SF-268 CNS, with MCF7 breast and with NCI-H522 lung was greater than 100 µM throughout. Moreover, the TGI with RPMI-8226 leukemia, in the experiment on RXF 393 renal, with PC-3 prostate, with COLO 205 colon and in the experiment on SK-MEL-5 melanoma was greater than 100 µM in each case.

With `COc1ccc(C2c3c(-c4ccccc4)nn(-c4ccccc4)c3Oc3ncn(N)c(=N)c32)cc1OC` (stereo not drawn), the TGI was found to be 15 µM with BT-549 breast; 4.48 µM in the experiment on T-47D breast; 4.06 µM in the experiment on HCT-15 colon; 10.4 µM with SF-268 CNS; 3.26 µM in the experiment on MCF7 breast; 4.15 µM with NCI-H522 lung. The TGI with RPMI-8226 leukemia is greater than 25.1 µM; in the experiment with RXF 393 renal, 4.53 µM; in the experiment with PC-3 prostate it was 4.08 µM; in the experiment with COLO 205 colon, 3.53 µM.

With `CCOC(=S)SC/C(=N\OC(C)(C)OC)c1ccccc1`, the TGI is greater than 100 µM with BT-549 breast; 63.1 µM in the experiment on T-47D breast; greater than 100 µM in the experiment on HCT-15 colon; greater than 100 µM with SF-268 CNS; greater than 100 µM in the experiment on MCF7 breast; 59.1 µM in the experiment with NCI-H522 lung. The TGI in the experiment with RXF 393 renal is 70 µM; in the experiment with PC-3 prostate it was greater than 100 µM; in the experiment on COLO 205 colon it was greater than 100 µM; with SK-MEL-5 melanoma it was greater than 100 µM.

For `CC(Nc1cc(=O)n(C)c(=O)[nH]1)c1ccccc1` (stereo not drawn), the TGI in the experiment on BT-549 breast, with T-47D breast, in the experiment with HCT-15 colon, in the experiment with SF-268 CNS, with MCF7 breast and in the experiment with NCI-H522 lung was greater than 100 µM each time. Moreover, the TGI in the experiment with RXF 393 renal, in the experiment on PC-3 prostate, in the experiment with COLO 205 colon and in the experiment with SK-MEL-5 melanoma was greater than 100 µM each time.

In the case of `COC(=O)Nc1nc2ccc(NS(=O)(=O)c3ccc(F)cc3)cc2[nH]1`, the TGI in the experiment on BT-549 breast was greater than 100 µM; in the experiment on T-47D breast, greater than 100 µM; in the experiment on HCT-15 colon it was greater than 100 µM; in the experiment with SF-268 CNS, greater than 100 µM; with MCF7 breast, greater than 100 µM; with NCI-H522 lung, 7.68 µM. For the same molecule, the TGI was 81.2 µM with RPMI-8226 leukemia; 78.6 µM in the experiment with RXF 393 renal; greater than 100 µM in the experiment on PC-3 prostate; 37.8 µM in the experiment with COLO 205 colon; greater than 100 µM in the experiment on SK-MEL-5 melanoma.

Take `CCOC(=O)C1CCCC1S(=O)(=O)c1ccc(C)cc1` (stereo not drawn): the TGI with BT-549 breast, in the experiment on T-47D breast, in the experiment on HCT-15 colon, with SF-268 CNS, in the experiment on MCF7 breast and in the experiment with NCI-H522 lung was greater than 100 µM each time. The TGI with RPMI-8226 leukemia, in the experiment on RXF 393 renal, with PC-3 prostate, with COLO 205 colon and in the experiment with SK-MEL-5 melanoma was greater than 100 µM throughout.
